Assay results taken from PubChem BioAssay AID1745844 (Carcinogenic Potency Database (CPDB), 2022).
Values joined by “and” are separate entries in the source; they are usually repeats but may differ in a detail not shown here. Equal values may be shown once. Active and inactive are the calls of the source. No rule for the calls is given here.

Test system: rodent lifetime carcinogenesis bioassay, tumor incidence TD50
Experiment: carcinogenic potency in animals, long-term in vivo studies, CPDB compilation (AID 1745844)

CN(N=O)c1ncnc2nc[nH]c12
TD50 (mouse, strain Swiss CD-1, females, in drinking water, site: liver, lesion: several types, types named in the paper, dosed 104 weeks, study length 104 weeks): 63.2 mg/kg/day | TD50 (mouse, strain Swiss CD-1, females, in drinking water, site: mammary gland, lesion: carcinoma, dosed 104 weeks, study length 104 weeks): 28.7 mg/kg/day | TD50 (mouse, strain Swiss CD-1, females, in drinking water, site: reproductive tract, lesion: several types, types named in the paper, dosed 104 weeks, study length 104 weeks): 15.8 mg/kg/day | TD50 (mouse, strain Swiss CD-1, females, in drinking water, site: uterus, lesion: one or several types, types not named, dosed 104 weeks, study length 104 weeks): 84.9 mg/kg/day | TD50 (mouse, strain Swiss CD-1, males, in drinking water, site: liver, lesion: several types, types named in the paper, dosed 104 weeks, study length 104 weeks): 62.6 mg/kg/day | TD50 (mouse, strain Swiss CD-1, males, in drinking water, site: lung, lesion: one or several types, types not named, dosed 104 weeks, study length 104 weeks): 18 mg/kg/day and 21.6 mg/kg/day

CC(O)CO (stereo unspecified)
carcinogen call (rat, strain Charles River CD (Sprague-Dawley), females, in feed, site: liver, lesion: nodular hyperplasia, dosed 104 weeks, study length 104 weeks): negative (inactive) | carcinogen call (rat, strain Charles River CD (Sprague-Dawley), males, in feed, site: liver, lesion: nodular hyperplasia, dosed 104 weeks, study length 104 weeks): negative (inactive)

C#C[C@]1(O)CC[C@H]2[C@@H]3CCc4cc(O)ccc4[C@H]3CC[C@@]21C
TD50 (rat, strain Slc-Wistar, females, by gavage, site: liver, lesion: hepatocellular carcinoma, dosed 52 weeks, study length 52 weeks): 0.2 mg/kg/day

CCN(CC)C(=S)S[Se](SC(=S)N(CC)CC)(SC(=S)N(CC)CC)SC(=S)N(CC)CC
TD50 (mouse, strain B6AKF1, females, oral dosing, site: any site (literature study), lesion: several types, types named in the paper, dosed 81 weeks, study length 81 weeks): 10.5 mg/kg/day | TD50 (mouse, strain B6AKF1, males, oral dosing, site: any site (literature study), lesion: several types, types named in the paper, dosed 81 weeks, study length 81 weeks): 8.45 mg/kg/day | TD50 (mouse, strain B6AKF1, males, oral dosing, site: liver, lesion: hepatoma, dosed 81 weeks, study length 81 weeks): 10.2 mg/kg/day | TD50 (mouse, strain B6AKF1, males, oral dosing, site: lung, lesion: adenoma, dosed 81 weeks, study length 81 weeks): 18.4 mg/kg/day | TD50 (mouse, strain B6C3F1, females, oral dosing, site: any site (literature study), lesion: several types, types named in the paper, dosed 81 weeks, study length 81 weeks): 3.46 mg/kg/day | TD50 (mouse, strain B6C3F1, females, oral dosing, site: liver, lesion: hepatoma, dosed 81 weeks, study length 81 weeks): 7.76 mg/kg/day | TD50 (mouse, strain B6C3F1, males, oral dosing, site: any site (literature study), lesion: several types, types named in the paper, dosed 81 weeks, study length 81 weeks): 0.638 mg/kg/day | TD50 (mouse, strain B6C3F1, males, oral dosing, site: liver, lesion: hepatoma, dosed 81 weeks, study length 81 weeks): 1.49 mg/kg/day | TD50 (mouse, strain B6C3F1, males, oral dosing, site: liver, lesion: several types, types named in the paper, dosed 81 weeks, study length 81 weeks): 1.28 mg/kg/day

ClCOCCl
TD50 (mouse, strain Ha/ICR, females, i.p., site: abdomen, lesion: sarcoma, dosed 60 weeks, study length 60 weeks): 0.182 mg/kg/day | carcinogen call (mouse, strain Ha/ICR, males, inhaled, site: liver, lesion: hepatocellular carcinoma, dosed 26 weeks, study length 108 weeks): negative (inactive) | carcinogen call (mouse, strain Ha/ICR, males, inhaled, site: liver, lesion: several types, types named in the paper, dosed 26 weeks, study length 108 weeks): negative (inactive) | TD50 (mouse, strain Ha/ICR, males, inhaled, site: lung, lesion: adenoma, dosed 26 weeks, study length 108 weeks): 1.26 mg/kg/day | TD50 (mouse, strain Ha/ICR, males, inhaled, site: lung, lesion: several types, types named in the paper, dosed 26 weeks, study length 108 weeks): 1.16 mg/kg/day | TD50 (rat, strain Sprague-Dawley Spartan, males, inhaled, site: any site (literature study), lesion: several types, types named in the paper, dosed 26 weeks, study length 121 weeks): 0.00234 mg/kg/day | carcinogen call (rat, strain Sprague-Dawley Spartan, males, inhaled, site: liver, lesion: hepatocellular tumor, benign, dosed 26 weeks, study length 121 weeks): negative (inactive) | TD50 (rat, strain Sprague-Dawley Spartan, males, inhaled, site: lung, lesion: adenoma, dosed 26 weeks, study length 121 weeks): 0.196 mg/kg/day | TD50 (rat, strain Sprague-Dawley Spartan, males, inhaled, site: nasal passageway, lesion: carcinoma, dosed 26 weeks, study length 121 weeks): 0.795 mg/kg/day | TD50 (rat, strain Sprague-Dawley Spartan, males, inhaled, site: nasal passageway, lesion: esthesioneuroepithelioma, dosed 26 weeks, study length 121 weeks): 0.00357 mg/kg/day

CCN(Cc1cccc(S(=O)(=O)O)c1)c1ccc(C(=C2C=CC(=[N+](CC)Cc3cccc(S(=O)(=O)[O-])c3)C=C2)c2ccccc2)cc1
TD50 (mouse, strain C3HeB/FeJ, females, in feed, site: any site (literature study), lesion: malignant tumor, dosed 104 weeks, study length 104 weeks): 18400 mg/kg/day (inactive) | carcinogen call (mouse, strain C3HeB/FeJ, females, in feed, site: any site (literature study), lesion: several types, types named in the paper, dosed 104 weeks, study length 104 weeks): negative (inactive) | TD50 (mouse, strain C3HeB/FeJ, females, in feed, site: liver, lesion: several types, types named in the paper, dosed 104 weeks, study length 104 weeks): 146000 mg/kg/day (inactive) | TD50 (mouse, strain C3HeB/FeJ, females, in feed, site: lung, lesion: adenoma, dosed 104 weeks, study length 104 weeks): 146000 mg/kg/day (inactive) | carcinogen call (mouse, strain C3HeB/FeJ, males, in feed, site: any site (literature study), lesion: malignant tumor, dosed 104 weeks, study length 104 weeks): negative (inactive) | TD50 (mouse, strain C3HeB/FeJ, males, in feed, site: any site (literature study), lesion: several types, types named in the paper, dosed 104 weeks, study length 104 weeks): 20800 mg/kg/day (inactive) | TD50 (mouse, strain C3HeB/FeJ, males, in feed, site: liver, lesion: several types, types named in the paper, dosed 104 weeks, study length 104 weeks): 26100 mg/kg/day (inactive) | TD50 (mouse, strain C3HeB/FeJ, males, in feed, site: lung, lesion: several types, types named in the paper, dosed 104 weeks, study length 104 weeks): 59200 mg/kg/day | carcinogen call (rat, strain Osborne-Mendel, females, in feed, site: any site (literature study), lesion: malignant tumor, dosed 104 weeks, study length 104 weeks): negative (inactive) | TD50 (rat, strain Osborne-Mendel, females, in feed, site: any site (literature study), lesion: several types, types named in the paper, dosed 104 weeks, study length 104 weeks): 97500 mg/kg/day | TD50 (rat, strain Osborne-Mendel, females, in feed, site: liver, lesion: several types, types named in the paper, dosed 104 weeks, study length 104 weeks): 13800 mg/kg/day | carcinogen call (rat, strain Osborne-Mendel, males, in feed, site: any site (literature study), lesion: malignant tumor, dosed 104 weeks, study length 104 weeks): negative (inactive) | TD50 (rat, strain Osborne-Mendel, males, in feed, site: any site (literature study), lesion: several types, types named in the paper, dosed 104 weeks, study length 104 weeks): 11400 mg/kg/day | TD50 (rat, strain Osborne-Mendel, males, in feed, site: liver, lesion: several types, types named in the paper, dosed 104 weeks, study length 104 weeks): 5980 mg/kg/day | TD50 (rat, strain Wistar, both sexes, in feed, site: abdomen, lesion: malignant lymphoma, dosed 93 weeks, study length 93 weeks): 8370 mg/kg/day | TD50 (rat, strain Wistar, both sexes, in feed, site: mediastinum, lesion: malignant lymphoma, dosed 93 weeks, study length 93 weeks): 8370 mg/kg/day | TD50 (rat, strain Wistar, both sexes, in feed, site: several sites, sites named in the paper, lesion: malignant lymphoma, dosed 93 weeks, study length 93 weeks): 3920 mg/kg/day

OCCN(CCO)c1nc(-c2cccs2)nc2ccccc12
TD50 (rat, strain Sprague-Dawley, females, in feed, site: any site (literature study), lesion: several types, types named in the paper, dosed 46 weeks, study length 66 weeks): 60.1 mg/kg/day

O[C@@H]([C@H](O)[C@H](O)CBr)[C@H](O)CBr
TD50 (mouse, strain Swiss, females, i.p., site: adrenal gland, lesion: cortical adenoma, dosed 26 weeks, study length 78 weeks): 136 mg/kg/day | TD50 (mouse, strain Swiss, females, i.p., site: all sites, lesion: lymphatic leukemia, dosed 26 weeks, study length 78 weeks): 89.8 mg/kg/day | TD50 (mouse, strain Swiss, females, i.p., site: all sites, lesion: lymphosarcoma, dosed 26 weeks, study length 78 weeks): 38.4 mg/kg/day | TD50 (mouse, strain Swiss, females, i.p., site: any site (literature study), lesion: benign tumor, dosed 26 weeks, study length 78 weeks): 130 mg/kg/day | TD50 (mouse, strain Swiss, females, i.p., site: any site (literature study), lesion: malignant tumor, dosed 26 weeks, study length 78 weeks): 11.2 mg/kg/day | TD50 (mouse, strain Swiss, females, i.p., site: any site (literature study), lesion: several types, types named in the paper, dosed 26 weeks, study length 78 weeks): 7.67 mg/kg/day | TD50 (mouse, strain Swiss, females, i.p., site: lung, lesion: several types, types named in the paper, dosed 26 weeks, study length 78 weeks): 21.4 mg/kg/day | TD50 (mouse, strain Swiss, females, i.p., site: subcutaneous tissue, lesion: carcinoma, dosed 26 weeks, study length 78 weeks): 66 mg/kg/day | TD50 (mouse, strain Swiss, males, i.p., site: any site (literature study), lesion: benign tumor, dosed 26 weeks, study length 78 weeks): 92.8 mg/kg/day | TD50 (mouse, strain Swiss, males, i.p., site: any site (literature study), lesion: malignant tumor, dosed 26 weeks, study length 78 weeks): 8.53 mg/kg/day | TD50 (mouse, strain Swiss, males, i.p., site: any site (literature study), lesion: several types, types named in the paper, dosed 26 weeks, study length 78 weeks): 6.03 mg/kg/day | TD50 (mouse, strain Swiss, males, i.p., site: liver, lesion: several types, types named in the paper, dosed 26 weeks, study length 78 weeks): 65.7 mg/kg/day | TD50 (mouse, strain Swiss, males, i.p., site: lung, lesion: several types, types named in the paper, dosed 26 weeks, study length 78 weeks): 11.4 mg/kg/day | TD50 (rat, strain Charles River CD (Sprague-Dawley), females, i.p., site: any site (literature study), lesion: malignant tumor, dosed 26 weeks, study length 78 weeks): 11.5 mg/kg/day | TD50 (rat, strain Charles River CD (Sprague-Dawley), females, i.p., site: any site (literature study), lesion: several types, types named in the paper, dosed 26 weeks, study length 78 weeks): 12.5 mg/kg/day | TD50 (rat, strain Charles River CD (Sprague-Dawley), females, i.p., site: lung, lesion: carcinoma, dosed 26 weeks, study length 78 weeks): 84.6 mg/kg/day | TD50 (rat, strain Charles River CD (Sprague-Dawley), females, i.p., site: mammary gland, lesion: adenocarcinoma, dosed 26 weeks, study length 78 weeks): 24.9 mg/kg/day | TD50 (rat, strain Charles River CD (Sprague-Dawley), females, i.p., site: peritoneum, lesion: sarcoma, dosed 26 weeks, study length 78 weeks): 79.2 mg/kg/day | TD50 (rat, strain Charles River CD (Sprague-Dawley), males, i.p., site: any site (literature study), lesion: benign tumor, dosed 26 weeks, study length 78 weeks): 16.6 mg/kg/day | TD50 (rat, strain Charles River CD (Sprague-Dawley), males, i.p., site: any site (literature study), lesion: several types, types named in the paper, dosed 26 weeks, study length 78 weeks): 7.95 mg/kg/day | TD50 (rat, strain Charles River CD (Sprague-Dawley), males, i.p., site: mammary gland, lesion: fibroadenoma, dosed 26 weeks, study length 78 weeks): 255 mg/kg/day | TD50 (rat, strain Charles River CD (Sprague-Dawley), males, i.p., site: peritoneum, lesion: sarcoma, dosed 26 weeks, study length 78 weeks): 30.9 mg/kg/day | TD50 (rat, strain Charles River CD (Sprague-Dawley), males, i.p., site: skin, lesion: several types, types named in the paper, dosed 26 weeks, study length 78 weeks): 103 mg/kg/day

CCCCC/C=C\C/C=C\CCCCCCCC(=O)OC
carcinogen call (rat, strain Wistar, males, by gavage, site: gastrointestinal tract, lesion: several types, types named in the paper, dosed 30 weeks, study length 87 weeks): negative (inactive) | carcinogen call (rat, strain Wistar, males, by gavage, site: liver, lesion: one or several types, types not named, dosed 30 weeks, study length 87 weeks): negative (inactive)
